{
  "source": "patent US20070155827A1",
  "about": "“USE OF BENZO-FUSED HETEROCYCLE SULFAMIDE DERIVATIVES FOR THE TREATMENT OF DEPRESSION” (priority 2005, published 2007)",
  "system": "Male Sprague Dawley rats",
  "test": "Forced Swim Test (Acute), FST",
  "assay_type": "in vivo",
  "settings": "p.o.",
  "method": "The Forced Swim test (FST) is a commonly used procedure to screen compounds for possible antidepressant properties. This test is also known as the behavioral despair test. Rodents placed in […] tanks filled with water present a wide variety of escape or immobility behaviors. Antidepressant drugs from different classes markedly increase escape behaviors and/or decrease latency or duration of immobility.\nVenlafaxine and desipramine were dissolved in water. All drugs and their vehicles were administered orally (p.o.) by gavage in a volume of 5 mL/kg.\nMale Sprague Dawley rats (140 to 160 g) from Charles River Laboratories Wilmington, Mass. were used. The animals went through a five-day quarantine period before being subjected to the experimental procedure.\nAnimals were housed in groups of four in plastic cages at an ambient temperature of 21° C. to 23° C. with an automated 12 hour light/dark cycle and access to water and commercial rodent food ad libitum. Animals were not handled more than for the routine bedding change prior to pre-test swim session.\nEach experiment consisted of seven treatment groups with n=4 animals per group. A total of 28 animals per experiment were used. Two consecutive experiments (1 and 2, 3 and 4, and 5 and 6) were exact replicas of each other. […] One treatment group of n=4 animals in each experiment was a vehicle treated group. […] In experiments 5 and 6 the effects of venlafaxine and maprotyline at 12 mg/kg, 30 mg/kg, and 60 mg/kg were tested.\nThe basic apparatus consisted of a cylinder (46 cm tall×˜20 cm diameter) filled with water to 30 cm deep, at a temperature of 25±1° C. The automated version of the FST was used to perform the experiments. Plumbing for automatic filling and emptying water connected the four cylinders. Cylinders were placed in the dividing chambers 25 cm wide to separate animals visually. Each 5-minute experimental session was videotaped and analyzed in real time by computer software (Clever Systems, Inc.) for four animals at a time. The immobility, swimming, climbing and escape times were recorded by the software. The four activities are defined as follow. Immobility: the animal floats motionlessly or makes only those movements necessary to keep its head above water; Climb: the animal vigorously moves vertically while scratching the wall around the cylinder; Swim: the animal moves horizontally around in the cylinder more than necessary to keep its head above water; and Escape: sum of all vigorous active movements.\nThe ability of a test compound to decrease the duration or frequency of immobility, or changes in swimming, climbing and escape times, was measured using the FST procedure described above. […] The analysis of the results in the studies described was focused on the immobility time during 5-minute test session.\nThere were two swim sessions in each experiment. First, a pre-test swim session for 15 minutes was performed. Following 48 hours later was a test session of 5-minute duration. Upon completion of a swim session, each animal was placed under a heat lamp in a cage with soft bedding for approximately 15 minutes to prevent hypothermia.\nAnimals were pre-treated with a vehicle or test compound after completing the pre-test swim session, then 24 hours later and then shortly prior to the 5-minute test session; i.e., three injections were given to each animal between the two swim sessions that occurred on 3 consecutive days.\nData were analyzed using GraphPad Prism software (GraphPad Software, Inc. San Diego, Calif.). For the comparison of the effect of different doses for various drugs on immobility in the FST one-way ANOVA was used followed by Dunnett's multiple comparison test. […] The ED50 and Emax values were statistically compared using two-tail t-test.",
  "data": [
    {"compound": "NS(=O)(=O)NC[C@H]1COc2cc(Cl)ccc2O1", "note": "[Compound #8, (2S)-(−)-N-(6-Chloro-2,3-dihydro-benzo[1,4]dioxin-2-ylmethyl)-sulfamide]", "values": [
      {"measurement": "ED50", "setting": "Rattus norvegicus, po, 5 min, three administrations, 5-minute test session, read-out: ED50 (immobility)", "value": "5.6 ± 0.6", "unit": "mg/kg"},
      {"measurement": "effect in the FST (immobility time)", "setting": "5-minute testing session", "value": "antidepressant-like activity in the FST"},
      {"measurement": "Emax (immobility)", "setting": "immobility", "value": "67.0 ± 11.6", "unit": "s"}
    ]}
  ]
}
